Source: patent publication US5387602A, “1.5-diphenyl-3-(N-hydroxycarbamoyloxyalkyl)pyrazoles” (Ortho Pharmaceutical Corporation, priority 1993, dated 1995)

How the values were obtained:
[1] = target: T1, RBL-1 Cell 5-Lipoxygenase (Rattus norvegicus, UniProt P12527); experiment: Procedure II: 5-lipoxygenase inhibition in disrupted RBL-1 cells (supernatant as enzyme source); format: biochemical; conditions: for IC50: read-out: IC50 5-LO (Procedure II)
T1 construct: the supernatant was saved as the source of enzymes; endogenous in cells; host or cells: RBL-1 (rat basophilic leukemia cells), 10,000×g supernatant of homogenate
T1 sequence (P12527 1-673): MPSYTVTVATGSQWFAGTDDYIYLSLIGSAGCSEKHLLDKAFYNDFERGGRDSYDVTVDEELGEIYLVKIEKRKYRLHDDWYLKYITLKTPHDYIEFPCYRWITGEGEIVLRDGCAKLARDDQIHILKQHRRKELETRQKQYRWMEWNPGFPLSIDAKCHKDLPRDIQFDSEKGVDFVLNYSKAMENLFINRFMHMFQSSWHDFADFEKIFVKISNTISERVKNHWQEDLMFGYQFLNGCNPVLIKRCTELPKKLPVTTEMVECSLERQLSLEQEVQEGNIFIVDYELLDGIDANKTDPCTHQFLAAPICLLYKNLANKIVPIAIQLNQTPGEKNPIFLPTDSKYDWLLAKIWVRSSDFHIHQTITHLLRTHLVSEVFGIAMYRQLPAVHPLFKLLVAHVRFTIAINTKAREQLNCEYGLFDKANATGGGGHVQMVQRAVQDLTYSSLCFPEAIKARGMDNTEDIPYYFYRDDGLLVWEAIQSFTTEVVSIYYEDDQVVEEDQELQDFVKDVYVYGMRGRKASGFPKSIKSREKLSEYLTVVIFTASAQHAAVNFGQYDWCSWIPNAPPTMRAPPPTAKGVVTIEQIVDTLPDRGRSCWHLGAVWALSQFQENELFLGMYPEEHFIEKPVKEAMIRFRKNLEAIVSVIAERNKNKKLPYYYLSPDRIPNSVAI
Method: RBL-1 Cell 5-Lipoxygenase and Cyclooxygenase
Rat basophilic leukemia cells (RBL-1; 5×10^7 viable cells/mL) were disrupted by homogenization on ice (four 20 sec bursts) with a Brinkman polytron. Complete cell breakage was verified microscopically. The homogenate was then centrifuged at 10,000×g for 48 minutes at 4° C. The pellet was discarded and the supernatant was saved as the source of enzymes. The supernatant was pre-incubated for five minutes at 37° C. in the presence of 2 mM of CaCl2 and compound or vehicle (1% DMSO). The conversion of AA into 5-LO products was initiated by adding 10 μL (50 μCi) of 1-^14 C-AA to each tube and incubated at 37° C. for 20 minutes. The reaction was stopped by adjusting the pH of each sample to 3 to 3.5 with 2M formic acid. Samples were extracted with three volumes of chloroform to isolate the products of 5-LO formed during the reaction. Fractions were dried under nitrogen, then resuspended in 40 μL of chloroform and spotted onto silica gel HL plates. The plates were developed in A-9 solvent. The dried plates were analyzed using a Bioscan Imaging TLC scanner to determine the percentage of radiolabelled AA converted to 5-HETE in each sample.
(§1) In the following tables, the superscripts indicate the number of experiments and, unless otherwise stated, the dose at which % inhibition is reported is 3 MPK.

CO in intact RBL-1 cells = target: T2, CO in intact RBL-1 cells (Rattus norvegicus, UniProt Q63921); experiment: Procedure III: inhibition of CO in intact RBL-1 cells; format: cell-based
T2 construct: 5-LO and CO in intact RBL-1 cells; endogenous in cells; host or cells: RBL-1 (rat basophilic leukemia cells), intact
T2 sequence (Q63921 27-602): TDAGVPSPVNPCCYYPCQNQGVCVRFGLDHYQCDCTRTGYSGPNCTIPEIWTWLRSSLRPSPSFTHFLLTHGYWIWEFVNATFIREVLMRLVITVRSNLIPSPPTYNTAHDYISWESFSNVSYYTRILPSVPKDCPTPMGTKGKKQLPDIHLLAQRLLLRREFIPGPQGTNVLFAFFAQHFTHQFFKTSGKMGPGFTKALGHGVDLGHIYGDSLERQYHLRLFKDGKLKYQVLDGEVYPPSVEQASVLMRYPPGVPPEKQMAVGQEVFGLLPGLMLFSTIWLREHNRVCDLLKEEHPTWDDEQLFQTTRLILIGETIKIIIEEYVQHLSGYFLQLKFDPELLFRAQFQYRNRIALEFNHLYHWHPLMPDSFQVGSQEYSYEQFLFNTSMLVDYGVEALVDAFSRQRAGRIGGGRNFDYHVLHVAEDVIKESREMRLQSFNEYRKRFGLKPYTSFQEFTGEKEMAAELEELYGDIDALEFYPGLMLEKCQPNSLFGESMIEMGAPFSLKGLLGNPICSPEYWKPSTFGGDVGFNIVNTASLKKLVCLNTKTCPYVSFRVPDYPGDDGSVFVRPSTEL
Method: (§2) The ability to inhibit 5-LO and CO in intact RBL-1 cells was also evaluated. RBL-1 cells were maintained in culture in minimal essential medium (Bio*Whittaker, Walkersville, Md.), containing 12.5% fetal calf serum, 10 mg/mL streptomycin, 10 I.U./mL penicillin G, […] gentamycin and 2 mM L-glutamine (Bio*Whittaker, Walkersville, Md.). Cells were collected by centrifugation, washed once in HBSS, and resuspended at a concentration of 1×10^5 cells/mL. Cells were incubated in the presence of vehicle or drug then centrifuged at 800×g for 10 minutes at 4° C. The supernatant was removed by aspiration and the cells were resuspended in 0.5 mL of HBSS. The reaction was started by the addition of 20 μg/mL of calcium ionophore A-23187 (mixed calcium and magnesium salts, Calbiochem, La Jolla, Calif.) and allowed to proceed for 15 minutes, then stopped by plunging the tubes into a slush ice bath. The conversion of AA to 5-LO products was initiated by the addition of 10 μL (50 uCi) of 1-^14 C-AA. Products were isolated by acidification and extraction, followed by thin layer chromatography analysis as described above. Radioactive areas corresponding to authentic 5-LO and CO products were quantitated by the Bioscan 2000 Imaging System.
as §1

[2] = target: T3, 5-LO in intact RBL-1 cells (Rattus norvegicus, UniProt P12527); experiment: Procedure III: inhibition of 5-LO in intact RBL-1 cells; format: cell-based
T3 construct: 5-LO and CO in intact RBL-1 cells; endogenous in cells; host or cells: RBL-1 (rat basophilic leukemia cells), intact
T3 sequence (P12527 1-673): T1 sequence (P12527 1-673)
Method: as §2, §1

Row | % INHIBITION 5-LO (Procedure II) [1] | IC50 [1] | IC50 (CO in intact RBL-1 cells) | IC50 [2] | Structure (SMILES)
1 | 63% | 5.3 µM | 0.86 µM | 21.5 µM | COc1ccc(-n2nc(COC(=O)NO)c(Br)c2-c2ccc(C)cc2)cc1 [1-M]
2 | 83% | < 0.1 µM | 0.39 µM | 2 µM | COc1ccc(-n2nc(COC(=O)N(C)O)c(Cl)c2-c2ccc(Cl)cc2)cc1 [1-H]
3 | 86% | 0.48 µM | 0.02 µM | 3.8 µM | COc1ccc(-n2nc(COC(=O)N(O)C(C)C)cc2-c2ccc(C)cc2)cc1 [1-L]
4 | 86% | 0.07 µM | 12.2 µM | 2.8 µM | COc1ccc(-n2nc(CCCOC(=O)N(O)C(C)C)c(Cl)c2-c2ccc(Cl)cc2)cc1 [3-E]
5 | 33% | 1.75 µM | 0.17 µM | 26 µM | COc1ccc(-n2nc(COC(=O)NO)cc2-c2ccc(C)cc2)cc1 [1-J]
6 | 85% | 0.28 µM | 0.22 µM | 1.21 µM | COc1ccc(-n2nc(COC(=O)N(C)O)c(Br)c2-c2ccc(Cl)cc2)cc1 [1-E]
7 | 83% | 0.23 µM | 1.97 µM | 2.35 µM | COc1ccc(-n2nc(COC(=O)N(O)C(C)C)c(Cl)c2-c2ccc(Cl)cc2)cc1 [1-I]
8 | 72% | 0.19 µM | 2.2 µM | 1.1 µM | COc1ccc(-n2nc(CCOC(=O)N(C)O)c(Br)c2-c2ccc(Cl)cc2)cc1 [2-E]
9 | 85% | 0.48 µM | 0.38 µM | 6.1 µM | COc1ccc(-n2nc(COC(=O)N(C)O)cc2-c2ccc(Cl)cc2)cc1 [1-B]
10 | 83% | 3 µM | 4.6 µM | 30 µM | COc1ccc(-n2nc(CCCOC(=O)NO)cc2-c2ccc(Cl)cc2)cc1 [3-A]
11 | 78% | 0.1 µM | 0.63 µM | 1.08 µM | COc1ccc(-n2nc(CCOC(=O)N(C)O)c(Cl)c2-c2ccc(C)cc2)cc1 [2-I]
12 | 81% | 0.18 µM | 0.86 µM | 5.12 µM | COc1ccc(-n2nc(COC(=O)N(O)C(C)C)c(Br)c2-c2ccc(C)cc2)cc1 [1-O]
13 | 82% | 0.64 µM | 0.08 µM | 0.92 µM | COc1ccc(-n2nc(CCOC(=O)N(C)O)cc2-c2ccc(C)cc2)cc1 [2-G]
14 | 74% | 0.41 µM | 0.08 µM | 3.46 µM | COc1ccc(-n2nc(COC(=O)N(C)O)c(Br)c2-c2ccc(C)cc2)cc1 [1-N]
15 | 74% | 0.03 µM | 1.1 µM | 3.1 µM | COc1ccc(-n2nc(CCOC(=O)N(O)C(C)C)c(Cl)c2-c2ccc(C)cc2)cc1 [2-J]
16 | 59% | 0.68 µM | 3.2 µM | 18.7 µM | COc1ccc(-n2nc(CCOC(=O)NO)c(Br)c2-c2ccc(C)cc2)cc1 [2-K]

Row | % INHIBITION 5-LO (Procedure II) [1] | IC50 [1] | IC50 (CO in intact RBL-1 cells) | IC50 [2] | Structure (SMILES)
17 | 80% | 0.03 µM | 1.23 µM | 1.97 µM | COc1ccc(-n2nc(CCCOC(=O)N(O)C(C)C)cc2-c2ccc(Cl)cc2)cc1 [3-C]
18 | 83% | 0.06 µM | 0.04 µM | 1.48 µM | COc1ccc(-n2nc(CCOC(=O)N(O)C(C)C)cc2-c2ccc(C)cc2)cc1 [2-H]
19 | 25% | 0.75 µM | 2.2 µM | 15.9 µM | COc1ccc(-n2nc(COC(=O)NO)c(Cl)c2-c2ccc(Cl)cc2)cc1 [1-G]
20 | 84% | 0.1 µM | 0.18 µM | 1.98 µM | COc1ccc(-n2nc(CCOC(=O)N(O)C(C)C)cc2-c2ccc(Cl)cc2)cc1 [2-B]
21 | 70% | 0.07 µM | 1.5 µM | 2.3 µM | COc1ccc(-n2nc(CCOC(=O)N(O)C(C)C)c(Cl)c2-c2ccc(Cl)cc2)cc1 [2-D]
22 | 80% | 0.03 µM | 7 µM | 1.5 µM | COc1ccc(-n2nc(CCCOC(=O)N(O)C(C)C)c(Br)c2-c2ccc(Cl)cc2)cc1 [3-G]
23 | 87% | 0.1 µM | 4.1 µM | 2.7 µM | COc1ccc(-n2nc(COC(=O)N(O)C(C)C)c(Cl)c2-c2ccc(C)cc2)cc1 [1-R]
24 | 69% | 0.47 µM | 2.7 µM | 4.2 µM | COc1ccc(-n2nc(CCOC(=O)N(C)O)c(Cl)c2-c2ccc(Cl)cc2)cc1 [2-C]
25 | 20% | 1.27 µM | 1.4 µM | 24.2 µM | COc1ccc(-n2nc(COC(=O)NO)cc2-c2ccc(Cl)cc2)cc1 [1-A]
26 | 88% | 0.06 µM | 4.92 µM | 2.35 µM | COc1ccc(-n2nc(CCCOC(=O)N(C)O)c(Br)c2-c2ccc(Cl)cc2)cc1 [3-F]
27 | 58% | 0.3 µM | 0.03 µM | 3.6 µM | COc1ccc(-n2nc(COC(=O)N(C)O)cc2-c2ccc(C)cc2)cc1 [1-K]
28 | 82% | 0.06 µM | 0.8 µM | 1.36 µM | COc1ccc(-n2nc(CCOC(=O)N(C)O)cc2-c2ccc(Cl)cc2)cc1 [2-A]
29 | 96% | 0.12 µM | 0.42 µM | 3.21 µM | COc1ccc(-n2nc(CCCOC(=O)N(C)O)cc2-c2ccc(Cl)cc2)cc1 [3-B]
30 | 28% | 0.84 µM | 2.4 µM | 25.9 µM | COc1ccc(-n2nc(COC(=O)NO)c(Br)c2-c2ccc(Cl)cc2)cc1 [1-D]
31 | 85% | 0.1 µM | 2.27 µM | 0.82 µM | COc1ccc(-n2nc(CCCOC(=O)N(C)O)c(Cl)c2-c2ccc(Cl)cc2)cc1 [3-D]
